According to US8946197B2, “Transglutaminase TG2 inhibitors, pharmaceutical compositions, and methods of use thereof” (CHDI Foundation, Inc., priority 2009, dated 2015):
Several values for one entry are separate records, joined by “and”; a condition that tells them apart may be missing. Equal values may be shown once.

Molecular target: T1, human TG2 (Homo sapiens, UniProt P21980)
T1 sequence (P21980 1-687): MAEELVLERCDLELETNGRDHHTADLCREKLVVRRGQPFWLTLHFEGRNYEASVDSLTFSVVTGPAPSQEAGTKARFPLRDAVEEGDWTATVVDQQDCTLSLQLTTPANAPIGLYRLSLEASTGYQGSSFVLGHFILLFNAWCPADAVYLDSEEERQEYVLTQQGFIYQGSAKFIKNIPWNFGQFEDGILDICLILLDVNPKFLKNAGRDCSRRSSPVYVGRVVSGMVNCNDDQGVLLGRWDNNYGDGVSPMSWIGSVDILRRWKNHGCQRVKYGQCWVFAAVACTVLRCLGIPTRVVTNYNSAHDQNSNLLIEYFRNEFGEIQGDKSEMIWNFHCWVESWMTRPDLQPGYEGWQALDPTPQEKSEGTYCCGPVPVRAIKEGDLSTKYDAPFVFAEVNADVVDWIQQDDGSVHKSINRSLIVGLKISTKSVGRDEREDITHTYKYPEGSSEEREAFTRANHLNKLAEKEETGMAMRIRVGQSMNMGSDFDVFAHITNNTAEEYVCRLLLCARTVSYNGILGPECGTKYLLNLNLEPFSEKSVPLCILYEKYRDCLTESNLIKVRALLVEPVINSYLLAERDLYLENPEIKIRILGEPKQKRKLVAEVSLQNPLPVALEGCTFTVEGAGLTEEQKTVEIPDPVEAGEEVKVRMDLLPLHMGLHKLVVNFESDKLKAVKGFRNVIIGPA
Assay: fluorescent screening assay for human TG2
Format: biochemical
Settings: 20 nM TG2, 8 μM N,N-dimethylated Casein, 16 μM KxD, pH 7.4, 37° C
Method: (§1) The fluorescent screening assay for human TG2 was performed as described herein: Assay conditions were 20 nM TG2, 8 μM N,N-dimethylated Casein (NMC) and 16 μM K×D (used for all transglutaminase assays) in 25 mM Hepes, pH 7.4, 250 mM NaCl, 2 mM MgCl2, 0.5 mM CaCl2, 0.2 mM DTT, 0.05% Pluronic F-127 at 37° C. A time point was taken with a microplate reader (Safire or Ultra, Tecan; ex: 350 nm, em: 535 nm) every 3 minutes for up to 2 hours and the initial linear reaction progress was used to determine the reaction velocity as a measure for enzyme activity. Assay conditions were identical for human TG6 and similar for human TG1 and mouse TG2 apart from enzyme concentration (mTG2 at 5 nM; TG1 at 10 nM) and CaCl2 concentration (0.2 mM for mTG2; 0.05 mM for TG1). Factor XIIIa was activated using 0.1 μg/μl thrombin (Sigma) in 35 mM Tris pH 8.0 for 20 min at 30° C. and the transamidation reaction was performed with 20 nM Factor XIIIa in 50 mM Tris pH 8.0, 1.25 mM CaCl2, 0.05% Pluronic, 0.2 mM DTT. TG3 was activated with 0.02 μg/μl thrombin under the same conditions as Factor XIIIa and assay conditions were 10 nM TG3 in 50 mM Hepes, pH 8, 20 mM CaCl2, 0.2 mM DTT, 0.05% Pluronic F-127.
as §1, with “A” for “The”

SMILES | IC50
C=CC(=O)Nc1ccc(S(=O)(=O)N2CCN(C(=O)OCc3ccc(CCCC)cc3)CC2)cc1 [4-(4-Acryloylamino-benzenesulfonyl)-piperazine-1-carboxylic acid 4-butyl-benzyl ester] | 1000 to 25000 nM
C=CC(=O)Nc1ccc(S(=O)(=O)N2CCN(C(=O)OCc3ccc(C(C)(C)C)cc3)CC2)cc1 [4-(4-Acryloylamino-benzenesulfonyl)-piperazine-1-carboxylic acid 4-tert-butyl-benzyl ester] | 1000 to 25000 nM
C=CC(=O)Nc1ccc(S(=O)(=O)N2CCN(C(=O)NC3C4CC5CC(C4)CC3C5)CC2)cc1 (centres unmarked) [4-(4-Acryloylamino-benzenesulfonyl)-piperazine-1-carboxylic acid adamantan-2-ylamide] | 100 to 1000 nM and < 100 nM
C=CC(=O)Nc1ccc(S(=O)(=O)N2CCN(C(=O)NCc3ccccc3)CC2)cc1 [4-(4-Acryloylamino-benzenesulfonyl)-piperazine-1-carboxylic acid benzylamide] | 100 to 1000 nM and < 100 nM
C=CC(=O)Nc1ccc(S(=O)(=O)N2CCN(C(=O)Oc3ccccc3)CC2)cc1 [4-(4-Acryloylamino-benzenesulfonyl)-piperazine-1-carboxylic acid phenyl ester] | 100 to 1000 nM and < 100 nM
CC#CC(=O)Nc1ccc(S(=O)(=O)N2CCN(C(=O)OC(C)(C)C)CC2)cc1 [4-[4-(1-Oxo-but-2-ynylamino)-benzenesulfonyl]-piperazine-1-carboxylic acid tert-butyl ester] | 1000 to 25000 nM
C=C(F)C(=O)Nc1ccc(S(=O)(=O)N2CCN(C(=O)OC(C)(C)C)CC2)cc1 [4-[4-(2-Fluoro-acryloylamino)-benzenesulfonyl]-piperazine-1-carboxylic acid tert-butyl ester] | 1000 to 25000 nM
C=CC(=O)N(C)c1ccc(S(=O)(=O)N2CCN(C(=O)OC(C)(C)C)CC2)cc1 [4-[4-(Acryloyl-methyl-amino)-benzenesulfonyl]-piperazine-1-carboxylic acid tert-butyl ester] | 1000 to 25000 nM

More lines, now with the values ahead:

IC50 | SMILES
100 to 1000 nM and < 100 nM | C=CC(=O)Nc1ccc(S(=O)(=O)N2CCN(C(=O)OCc3cccc(Cl)c3)CC2)cc1 [4-(4-Acryloylamino-benzenesulfonyl)-piperazine-1-carboxylic acid 3-chloro-benzyl ester]
100 to 1000 nM and < 100 nM | C=CC(=O)Nc1ccc(S(=O)(=O)N2CCN(C(=O)OCc3cccc(F)c3)CC2)cc1 [4-(4-Acryloylamino-benzenesulfonyl)-piperazine-1-carboxylic acid 3-fluoro-benzyl ester]
< 100 nM and 100 to 1000 nM | C=CC(=O)Nc1ccc(S(=O)(=O)N2CCN(C(=O)OCc3ccc(F)cc3)CC2)cc1 [4-(4-Acryloylamino-benzenesulfonyl)-piperazine-1-carboxylic acid 4-fluoro-benzyl ester]
100 to 1000 nM and < 100 nM | C=CC(=O)Nc1ccc(S(=O)(=O)N2CCN(C(=O)OCc3ccc(C)cc3)CC2)cc1 [4-(4-Acryloylamino-benzenesulfonyl)-piperazine-1-carboxylic acid 4-methyl-benzyl ester]
100 to 1000 nM and < 100 nM | C=CC(=O)Nc1ccc(S(=O)(=O)N2CCN(C(=O)OC3CCCC3)CC2)cc1 [4-(4-Acryloylamino-benzenesulfonyl)-piperazine-1-carboxylic acid cyclopentyl ester]
100 to 1000 nM and < 100 nM | C=CC(=O)Nc1ccc(S(=O)(=O)N2CCN(C(=O)N(C)C)CC2)cc1 [4-(4-Acryloylamino-benzenesulfonyl)-piperazine-1-carboxylic acid dimethylamide]
100 to 1000 nM and < 100 nM | C=CC(=O)Nc1ccc(S(=O)(=O)N2CCN(C(=O)OCC)CC2)cc1 [4-(4-Acryloylamino-benzenesulfonyl)-piperazine-1-carboxylic acid ethyl ester]
100 to 1000 nM and < 100 nM | C=CC(=O)Nc1ccc(S(=O)(=O)N2CCN(C(=O)OCC(C)C)CC2)cc1 [4-(4-Acryloylamino-benzenesulfonyl)-piperazine-1-carboxylic acid isobutyl ester]
100 to 1000 nM and < 100 nM | C=CC(=O)Nc1ccc(S(=O)(=O)N2CCN(C(=O)OC(C)C)CC2)cc1 [4-(4-Acryloylamino-benzenesulfonyl)-piperazine-1-carboxylic acid isopropyl ester]
